Test results: ChEMBL document CHEMBL3397003, “Synthesis of dansyl-labeled probe of thiophene analogue of annonaceous acetogenins for visualization of cell distribution and growth inhibitory activity toward human cancer cell lines” (2015)

Key:
Format in all cases: functional
SK-OV-3 = assay: Growth inhibition of human SKOV3 cells after 48 hrs by sulforhodamine B colorimetric assay; details: SK-OV-3, 48 h, read-out: pGI50 (converted)
[1] = Growth inhibition of human RXF631L cells after 48 hrs by sulforhodamine B colorimetric assay; details: RXF 631, 48 h, read-out: pGI50 (converted)
[2] = Growth inhibition of human DMS273 cells after 48 hrs by sulforhodamine B colorimetric assay; details: DMS-273, 48 h
[3] = Growth inhibition of human SF295 cells after 48 hrs by sulforhodamine B colorimetric assay; details: SF-295, 48 h
U-251 = assay: Growth inhibition of human U251 cells after 48 hrs by sulforhodamine B colorimetric assay; details: U-251, 48 h, read-out: pGI50 (converted)
A549 = assay: Growth inhibition of human A549 cells after 48 hrs by sulforhodamine B colorimetric assay; details: A549, 48 h, read-out: pGI50 (converted)
[4] = Growth inhibition of human HBC4 cells after 48 hrs by sulforhodamine B colorimetric assay; details: HBC4, 48 h, read-out: pGI50 (converted)
[5] = Growth inhibition of human SF539 cells after 48 hrs by sulforhodamine B colorimetric assay; details: SF-539, 48 h, read-out: pGI50 (converted)
NCI-H522 = assay: Growth inhibition of human NCI-H522 cells after 48 hrs by sulforhodamine B colorimetric assay; details: NCI-H522, 48 h
MCF7 = assay: Growth inhibition of human MCF7 cells after 48 hrs by sulforhodamine B colorimetric assay; details: MCF7, 48 h
[6] = Growth inhibition of human SNB78 cells after 48 hrs by sulforhodamine B colorimetric assay; details: SNB-78, 48 h, read-out: pGI50 (converted)
NCI-H23 = assay: Growth inhibition of human NCI-H23 cells after 48 hrs by sulforhodamine B colorimetric assay; details: NCI-H23, 48 h
SF-268 = assay: Growth inhibition of human SF268 cells after 48 hrs by sulforhodamine B colorimetric assay; details: SF-268, 48 h, read-out: pGI50 (converted)
[7] = Growth inhibition of human HCT116 cells after 48 hrs by sulforhodamine B colorimetric assay; details: HCT-116, 48 h
[8] = Growth inhibition of human BSY1 cells after 48 hrs by sulforhodamine B colorimetric assay; details: BSY-1, 48 h
KM12 = assay: Growth inhibition of human KM12 cells after 48 hrs by sulforhodamine B colorimetric assay; details: KM12, 48 h, read-out: pGI50 (converted)
NCI-H226 = assay: Growth inhibition of human NCI-H226 cells after 48 hrs by sulforhodamine B colorimetric assay; details: NCI-H226, 48 h, read-out: pGI50 (converted)
HT-29 = assay: Growth inhibition of human HT-29 cells after 48 hrs by sulforhodamine B colorimetric assay; details: HT-29, 48 h, read-out: pGI50 (converted)
SNB-75 = assay: Growth inhibition of human SNB75 cells after 48 hrs by sulforhodamine B colorimetric assay; details: SNB-75, 48 h, read-out: pGI50 (converted)
[9] = Growth inhibition of human MKN74 cells after 48 hrs by sulforhodamine B colorimetric assay; details: MKN-74, 48 h
NCI-H460 = assay: Growth inhibition of human NCI-H460 cells after 48 hrs by sulforhodamine B colorimetric assay; details: NCI-H460, 48 h, read-out: pGI50 (converted)
[10] = Growth inhibition of human LOXIMVI cells after 48 hrs by sulforhodamine B colorimetric assay; details: LOX IMVI
St-4 = assay: Growth inhibition of human St-4 cells after 48 hrs by sulforhodamine B colorimetric assay; details: St-4, 48 h, read-out: pGI50 (converted)
[11] = Growth inhibition of human MKN28 cells after 48 hrs by sulforhodamine B colorimetric assay; details: MKN-28, 48 h
ACHN = assay: Growth inhibition of human ACHN cells after 48 hrs by sulforhodamine B colorimetric assay; details: read-out: pGI50 (converted)
[12] = Growth inhibition of human HCT15 cells after 48 hrs by sulforhodamine B colorimetric assay; details: HCT-15, 48 h, read-out: pGI50 (converted)
[13] = Growth inhibition of human HBC5 cells after 48 hrs by sulforhodamine B colorimetric assay; details: HBC5, 48 h
[14] = Growth inhibition of human OVCAR4 cells after 48 hrs by sulforhodamine B colorimetric assay; details: OVCAR-4, 48 h, read-out: pGI50 (converted)
[15] = Growth inhibition of human MKN45 cells after 48 hrs by sulforhodamine B colorimetric assay; details: MKN-45, 48 h, read-out: pGI50 (converted)
DU-145 = assay: Growth inhibition of human DU145 cells after 48 hrs by sulforhodamine B colorimetric assay; details: DU-145, 48 h, read-out: pGI50 (converted)
[16] = Growth inhibition of human MKN7 cells after 48 hrs by sulforhodamine B colorimetric assay; details: MKN-7, 48 h
[17] = Growth inhibition of human MKN1 cells after 48 hrs by sulforhodamine B colorimetric assay; details: MKN-1, 48 h, read-out: pGI50 (converted)
[18] = Growth inhibition of human OVCAR5 cells after 48 hrs by sulforhodamine B colorimetric assay; details: OVCAR-5, 48 h, read-out: pGI50 (converted)
[19] = Growth inhibition of human HCC2998 cells after 48 hrs by sulforhodamine B colorimetric assay; details: HCC 2998, 48 h, read-out: pGI50 (converted)
[20] = Growth inhibition of human OVCAR8 cells after 48 hrs by sulforhodamine B colorimetric assay; details: OVCAR-8, 48 h, read-out: pGI50 (converted)
[21] = Growth inhibition of human DMS114 cells after 48 hrs by sulforhodamine B colorimetric assay; details: DMS-114, 48 h
[22] = Growth inhibition of human PC3 cells after 48 hrs by sulforhodamine B colorimetric assay; details: PC-3, 48 h, read-out: pGI50 (converted)
[23] = Growth inhibition of human OVCAR3 cells after 48 hrs by sulforhodamine B colorimetric assay; details: OVCAR-3, 48 h, read-out: pGI50 (converted)
MDA-MB-231 = assay: Growth inhibition of human MDA-MB-231 cells after 48 hrs by sulforhodamine B colorimetric assay; details: MDA-MB-231, 48 h, read-out: pGI50 (converted)

CCCCCCCCCCCC[C@@H](O)[C@H]1CC[C@H]([C@H](O)CCCCCCCCCCNC(=O)c2ccsc2)O1
GI50 (SK-OV-3): > 100 µM
GI50 [1]: > 100 µM
GI50 [2]: 2 µM
GI50 [3]: 1 µM
GI50 (U-251): > 100 µM
GI50 (A549): > 100 µM
GI50 [4]: > 100 µM
GI50 [5]: > 100 µM
GI50 (NCI-H522): 1 µM
GI50 (MCF7): 2 µM
GI50 [6]: > 100 µM
GI50 (NCI-H23): 0.2 µM
GI50 (SF-268): > 100 µM

CN(C)c1cccc2c(S(=O)(=O)NCCCCCCCCC[C@@H](O)[C@H]3CC[C@H]([C@H](O)CCCCCCCCCCNC(=O)c4ccsc4)O3)cccc12
GI50 [7]: 0.302 µM
GI50 (SK-OV-3): > 100 µM
GI50 [8]: 1.2 µM
GI50 [1]: > 100 µM
GI50 [2]: > 100 µM
GI50 (KM12): > 100 µM
GI50 [3]: 12.9 µM
GI50 (NCI-H226): > 100 µM
GI50 (HT-29): > 100 µM
GI50 (U-251): > 100 µM
GI50 (SNB-75): > 100 µM
GI50 (A549): > 100 µM
GI50 [9]: 33.1 µM
GI50 (NCI-H460): > 100 µM
GI50 [10]: 0.676 µM
GI50 (St-4): > 100 µM
GI50 [11]: 0.0363 µM
GI50 (ACHN): > 100 µM
GI50 [12]: > 100 µM
GI50 [13]: 0.363 µM
GI50 [14]: > 100 µM
GI50 [4]: > 100 µM
GI50 [5]: > 100 µM
GI50 [15]: > 100 µM
GI50 (DU-145): > 100 µM
GI50 [16]: 0.0363 µM
GI50 (NCI-H522): 25.7 µM
GI50 [17]: > 100 µM
GI50 [18]: > 100 µM
GI50 [19]: > 100 µM
GI50 (MCF7): 2.88 µM
GI50 [20]: > 100 µM
GI50 [21]: 0.0302 µM
GI50 [22]: > 100 µM
GI50 [6]: > 100 µM
GI50 (NCI-H23): 36.3 µM
GI50 [23]: > 100 µM
GI50 (MDA-MB-231): > 100 µM
GI50 (SF-268): > 100 µM
